Control, Oxygen consumption rate, % of control and IC50 data for 16 molecules are collected here from ChEMBL document CHEMBL1123683 (J Med Chem, 1987).

Assay [1] has as its target Prostaglandin G/H synthase 1 (Ovis aries) (UniProt P05979). The conditions noted are these: at 500 µM.
The target is the same in assay [2]. Kind of assay: Inhibition of microsomal PGH synthase isolated from sheep seminal vesicles (SSV) estimated as rate of oxygen consumption in presence of 100 uM of the compound.
Assay [3] has the same target. The assay can be described thus: Inhibition of PGH synthase in sheep seminal vesicle microsomes.
Assay [4] shares this target. The assay can be described thus: Inhibition of microsomal PGH synthase isolated from sheep seminal vesicles (SSV) estimated as rate of oxygen consumption in presence of 500 uM of the compound; Compound was found to be insoluble.
The target is the same in assay [5]. Kind of assay: Inhibition of microsomal PGH synthase isolated from sheep seminal vesicles (SSV) estimated as rate of oxygen consumption in presence of 100 uM of the compound. Also noted: scale not given: the % may be the effect or the level left.
For assay [6] the target is unchanged. The assay can be described thus: Inhibition of microsomal PGH synthase isolated from sheep seminal vesicles (SSV) estimated as rate of oxygen consumption in presence of 500 uM of the compound. On the set-up: scale not given: the % may be the effect or the level left.

Prostaglandin G/H synthase 1 (Ovis aries), sequence (P05979 whole entry, looked up): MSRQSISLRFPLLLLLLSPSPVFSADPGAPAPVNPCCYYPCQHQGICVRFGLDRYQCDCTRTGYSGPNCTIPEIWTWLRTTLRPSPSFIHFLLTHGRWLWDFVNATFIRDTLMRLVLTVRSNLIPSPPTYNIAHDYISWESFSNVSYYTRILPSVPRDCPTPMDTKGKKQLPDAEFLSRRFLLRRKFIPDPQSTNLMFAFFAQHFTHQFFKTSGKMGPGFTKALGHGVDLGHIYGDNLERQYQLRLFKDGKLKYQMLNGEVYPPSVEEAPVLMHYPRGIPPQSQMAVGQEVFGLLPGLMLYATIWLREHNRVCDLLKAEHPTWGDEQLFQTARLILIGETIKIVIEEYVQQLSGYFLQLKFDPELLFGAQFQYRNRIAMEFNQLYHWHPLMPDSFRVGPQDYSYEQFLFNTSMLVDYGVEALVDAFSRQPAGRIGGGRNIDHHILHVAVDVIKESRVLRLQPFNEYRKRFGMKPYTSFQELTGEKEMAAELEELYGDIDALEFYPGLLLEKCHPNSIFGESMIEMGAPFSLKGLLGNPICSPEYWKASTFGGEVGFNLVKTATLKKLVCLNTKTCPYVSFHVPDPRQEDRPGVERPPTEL

In assay [1], `O=C(CC(=O)Nc1ccc(Cl)cc1)Nc1ccc(Cl)cc1` returned a Control of 48%. Besides, in assay [2], the Oxygen consumption rate, % of control was 64%. In addition, in assay [3], the midpoint of inhibition, the IC50, lay at 420 µM.
As to `COc1ccc(NC(=O)CC(=O)Nc2ccc(OC)cc2)cc1`, the Oxygen consumption rate, % of control in assay [2] is 78%. Further, in assay [4], the Control entry was “Insoluble”.
Take `O=C(CC(=O)Nc1ccc(O)cc1)Nc1ccc(O)cc1`: the Control in assay [1] was found to be 25%. Moreover, in assay [2], the Oxygen consumption rate, % of control is 67%. The same molecule yielded an IC50 in assay [3] of 190 µM.
Regarding `O=C(CCCCC(=O)Nc1ccc(O)cc1)Nc1ccc(O)cc1`, the Control in assay [5] was 67%; in assay [1], 26%. For the same molecule, in assay [3], it took 230 µM to reach half-maximal inhibition (IC50).
Take `O=C(CC(=O)Nc1ccccc1)Nc1ccccc1`: the figures for the Control in assay [5] and in assay [1] were 65% and 55%, respectively.
Regarding `CCCCC(C(=O)Nc1ccc(C)cc1)C(=O)Nc1ccc(C)cc1`, the Control in assay [1] was 97%.
For `CCCCC(C(=O)Nc1ccc(O)cc1)C(=O)Nc1ccc(O)cc1`, the Control in assay [5] is 76%; in assay [1], 36%. For the same molecule, in assay [3], the IC50 was determined as 290 µM.
As for `CCCCC(C(=O)Nc1ccc(Cl)cc1)C(=O)Nc1ccc(Cl)cc1`, the results for the Control in assay [5] and in assay [4] were 96% and “Insoluble”, respectively.
Turning to `CCCCC(C(=O)Nc1ccc([N+](=O)[O-])cc1)C(=O)Nc1ccc([N+](=O)[O-])cc1`, the results for the Control in assay [5] and in assay [6] were 126% and “Insoluble”, respectively.
On to `O=C(CC(=O)Nc1ccc([N+](=O)[O-])cc1)Nc1ccc([N+](=O)[O-])cc1`, for which the Control in assay [6] was 88%.
On to `O=C(CCC(=O)Nc1ccc(O)cc1)Nc1ccc(O)cc1`, for which, in assay [6], the Control is 27%. For the same molecule, in assay [2], the Oxygen consumption rate, % of control is 79%. Besides, in assay [3], the IC50 was 240 µM.
In assay [1], `O=C(CC(=O)Nc1cccc(O)c1)Nc1cccc(O)c1` displayed a Control of 86%.
As for `Cc1ccc(NC(=O)CC(=O)Nc2ccc(C)cc2)cc1`, the Control in assay [6] is 66%.
Take `CCCCC(C(=O)Nc1ccccc1)C(=O)Nc1ccccc1`: the Oxygen consumption rate, % of control in assay [2] is 105%. For the same molecule, the Control result in assay [4] is listed as “Insoluble”.
With `CCCCC(C(=O)Nc1ccc(O)cc1C)C(=O)Nc1ccc(O)cc1C`, the results for the Control in assay [5] and in assay [6] were 57% and 31%, respectively. The molecule further came in with a half-maximal inhibitory concentration (IC50) in assay [3] of 150 µM.
Take `CCCCC(C(=O)Nc1ccc(OC)cc1)C(=O)Nc1ccc(OC)cc1`: the Oxygen consumption rate, % of control in assay [2] is 102%. Moreover, the Control entry in assay [4] is on record as “Insoluble”.

Broadly, the IC50 is the concentration that inhibits the measured activity by half.
